From patent publication US20260347372A1, “SMALL MOLECULE INHIBITORS OF KRAS G12D MUTANT” (MERCK SHARP & DOHME LLC, priority 2023, published 2026)

Tests used:
KRAS G12D = KRAS G12D (Homo sapiens, UniProt P01116, G12D); experiment: SOS-catalyzed nucleotide exchange assay, KRAS G12D (Procedure A); assay type: biochemical; details: guanine nucleotide exchange (GNE)
Method in brief: (§1)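 Compounds in 10-point 3-fold series sat 60 min with biotin-KRAS/Bodipy-GDP/Tb-streptavidin complex, then human SOS and 3 mM GTP were added. G13D: 1.25 nM KRAS, no SOS, 30 min. WT and G12D: 1 nM with 40 nM SOS, 60 min. G12C (C51S/C80L/C118S): 3 nM/40 nM, 60 min. Curves fitted from normalised TR-FRET 520/495 ratio.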

KRAS WT = KRAS WT (Homo sapiens, UniProt P01116); experiment: SOS-catalyzed nucleotide exchange assay, KRAS WT (Procedure A); assay type: biochemical; details: GNE
Method in brief: as §1

KRAS G12C = KRAS G12C (Homo sapiens, UniProt P01116, C118S/C51S/C80L/G12C); experiment: SOS-catalyzed nucleotide exchange assay, KRAS G12C (Procedure A); assay type: biochemical; details: GNE
Description: (§2) Procedure for SOS-Catalyzed Nucleotide Exchange Assay for KRAS-WT, G12C/D/V, G13D, HRAS, and NRAS (Procedure A)
(§3) Recombinant KRAS-G12C protein used in this assay has an additional triple mutation (C51S/C80L/C118S). Whereas KRAS-WT, G12D/V, G13D, HRAS and NRAS are in context of their WT protein sequence background. Specifically, the SOS-catalyzed nucleotide exchange assay utilizes a preformed TR-FRET complex containing a specific biotinylated RAS protein (KRAS-WT, G12C/V/D, G13D, HRAS, NRAS; described above) with Bodipy-GDP, and Terbium-streptavidin. Compounds are preincubated with this complex for 60 minutes. Subsequently, recombinant human SOS protein and unlabeled GTP are added to initiate the exchange reaction. Small molecule inhibitors stabilize the Bodipy-GDP complex whereas the untreated protein rapidly exchanges Bodipy-GDP for unlabeled GTP resulting in reduced TR-FRET signal.
(§4) To assemble the preformed TR-FRET complexes, each biotinylated RAS protein is diluted to 2 μM in an EDTA Buffer (20 mM HEPES pH 7.5, 50 mM sodium chloride, 10 mM EDTA, and 0.01% Tween) and incubated at room temperature for one hour. This mixture is then further diluted to 90 nM in an Assay Buffer (20 mM HEPES pH 7.5, 150 mM sodium chloride, 10 mM magnesium chloride, and 0.005% Tween) containing 15 nM of Terbium-Streptavidin (Invitrogen, catalog #PV3577) and 900 nM of Bodipy-GDP (Invitrogen, catalog #G22360) and incubated at room temperature for six hours. It should be noted that this preformed TR-FRET complex for each of the RAS protein were made ahead of time, aliquoted and stored at −80° C. until the day of the experiment.
(§5) Each test compound (10 mM stock in DMSO) is diluted in DMSO to make a final-10-point, 3-fold dilution and is acoustically dispensed into a 384-well assay plate (Corning, catalog #3820) using an Echo 550 (Labcyte). Each well of the assay plate receives 3 μL of a specific 3×RAS preformed TR-FRET complex and 3 μL of Assay Buffer and is incubated at room temperature for 60 minutes (preincubation time). Each well then receives 3 μL of 3× recombinant human SOS protein and GTP (Sigma, G8877) in Assay Buffer and is incubated at room temperature for 30 minutes (G13D), 60 minutes (KRAS WT/G12C/D, H/NRAS) or 90 minutes for G12V. The final reaction in each well of 9 μL consists of 3 mM GTP, specific Ras and SOS proteins in the following concentrations: KRAS-G12C/SOS=3 nM/40 nM, KRAS-WT and G12D/SOS=1 nM/40 nM, KRAS-G12V/SOS=1.25 nM/160 nM, KRAS-G13D/SOS=1.25 nM/0 nM, HRAS and NRAS=1.25 nM/40 nM.
(§6) The time-resolved fluorescence resonance energy transfer (TR-FRET) signal is measured on an Envision (PerkinElmer) plate reader: Excitation filter=340 nm; emission1=495 nm; emission2=520 nm; dichroic mirror=D400/D505; delay time=[…]. The signal of each well is determined as the ratio of the emission at 520 nm to that at 495 nm. Percent effect of each well is determined after normalization to control wells containing DMSO (no effect) or a saturating concentration of inhibitor (max effect). The apparent effect as a function of compound concentration is fit to a four-parameter logistic equation.
(§7) For Example No. 14, nucleotide exchange assays for KRAS G12D, WT, G12C, and G12V were performed according to Procedure B. All the other compounds were tested according to Procedure A.

KRAS G12V = KRAS G12V (Homo sapiens, UniProt P01116, G12V); experiment: SOS-catalyzed nucleotide exchange assay, KRAS G12V (Procedure A); assay type: biochemical; details: GNE
Method in brief: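 Biotinylated KRAS G12V was loaded with Bodipy-GDP alongside Terbium-streptavidin to form a TR-FRET complex, which was preincubated with compounds for 60 minutes in 384-well plates. Human SOS protein and unlabeled GTP were then added for 90 minutes, giving final concentrations of 1.25 nM KRAS-G12V, 160 nM SOS and 3 mM GTP. The 520/495 nm emission ratio was read on an Envision.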

KRAS G13D = KRAS G13D (Homo sapiens, UniProt P01116, G13D); experiment: SOS-catalyzed nucleotide exchange assay, KRAS G13D (Procedure A); assay type: biochemical; details: GNE
Description: as §2, §3, §4, §5, §6, §7

HRAS = HRAS (Homo sapiens, UniProt P01112); experiment: SOS-catalyzed nucleotide exchange assay, HRAS (Procedure A); assay type: biochemical; details: GNE
Description: as §2, §3, §4, §5, §6, §7

NRAS = NRAS (Homo sapiens, UniProt P01111); experiment: SOS-catalyzed nucleotide exchange assay, NRAS (Procedure A); assay type: biochemical; details: GNE
Description: as §2, §3, §4, §5, §6, §7

AsPC-1 cells = molecular target: T1, AsPC-1 cells (Homo sapiens, UniProt P01116, G12D); experiment: Cellular phospho-ERK assay, AsPC-1 cells (KRAS G12D); assay type: cell-based; details: 2 hours, read-out: AsPC1 pERK IC50
T1 construct: p-ERK/total ERK AlphaSureFire read-out
Method in brief: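 Compound was titrated 10-point in 3-fold steps (top 30 μM) on KRAS G12D homozygous pancreatic lines PANC08.13 and AsPC-1 for 2 h at 37 °C. The p-ERK/total ERK ratio was measured by multiplex AlphaLISA SureFire and fitted with a 4-parameter logistic model to give IC50.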

Chain of KRAS G12V (P01116 with tags, fused parts or gaps isoform P01116-2 G12V): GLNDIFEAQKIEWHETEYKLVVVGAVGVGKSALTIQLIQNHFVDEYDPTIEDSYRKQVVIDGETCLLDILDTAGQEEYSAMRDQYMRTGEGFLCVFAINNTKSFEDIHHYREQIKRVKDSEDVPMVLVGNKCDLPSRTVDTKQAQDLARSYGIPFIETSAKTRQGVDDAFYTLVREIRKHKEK
T1 sequence (P01116 1-188 isoform P01116-2 G12D): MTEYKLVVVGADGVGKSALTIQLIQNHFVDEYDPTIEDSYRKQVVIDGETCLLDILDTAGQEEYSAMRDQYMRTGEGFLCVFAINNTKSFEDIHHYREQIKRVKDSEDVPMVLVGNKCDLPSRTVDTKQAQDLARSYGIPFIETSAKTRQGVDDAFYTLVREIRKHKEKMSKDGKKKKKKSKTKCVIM
Chain of HRAS (P01112 with tags, fused parts or gaps): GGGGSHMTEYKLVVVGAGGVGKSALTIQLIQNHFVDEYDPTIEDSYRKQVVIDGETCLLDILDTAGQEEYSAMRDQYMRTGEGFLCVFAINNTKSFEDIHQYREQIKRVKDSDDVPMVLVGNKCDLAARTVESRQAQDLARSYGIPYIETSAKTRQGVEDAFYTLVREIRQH
Chain of KRAS WT (P01116 with tags, fused parts or gaps isoform P01116-2): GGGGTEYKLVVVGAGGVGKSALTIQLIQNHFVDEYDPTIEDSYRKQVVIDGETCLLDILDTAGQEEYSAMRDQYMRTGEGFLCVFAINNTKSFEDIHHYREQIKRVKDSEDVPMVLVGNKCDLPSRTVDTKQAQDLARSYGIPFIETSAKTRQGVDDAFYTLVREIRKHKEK
Chain of KRAS G12C (P01116 with tags, fused parts or gaps isoform P01116-2 G12C/C51S/C80L/C118S): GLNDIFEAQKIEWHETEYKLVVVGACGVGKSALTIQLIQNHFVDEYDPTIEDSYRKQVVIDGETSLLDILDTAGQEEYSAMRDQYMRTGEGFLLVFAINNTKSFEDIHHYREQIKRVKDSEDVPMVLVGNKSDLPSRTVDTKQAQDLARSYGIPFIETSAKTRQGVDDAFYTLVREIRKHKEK
Chain of KRAS G13D (P01116 with tags, fused parts or gaps isoform P01116-2 G13D): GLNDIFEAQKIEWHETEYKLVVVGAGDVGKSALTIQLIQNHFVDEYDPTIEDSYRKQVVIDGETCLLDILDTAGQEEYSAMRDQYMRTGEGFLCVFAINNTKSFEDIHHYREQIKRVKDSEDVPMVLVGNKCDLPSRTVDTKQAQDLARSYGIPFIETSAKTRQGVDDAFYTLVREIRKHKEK
Chain of KRAS G12D (P01116 with tags, fused parts or gaps isoform P01116-2 G12D): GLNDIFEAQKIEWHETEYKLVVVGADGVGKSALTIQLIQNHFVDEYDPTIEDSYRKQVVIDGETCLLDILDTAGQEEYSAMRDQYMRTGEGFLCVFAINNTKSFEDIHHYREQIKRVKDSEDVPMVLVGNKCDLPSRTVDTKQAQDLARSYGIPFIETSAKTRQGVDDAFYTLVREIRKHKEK
Chain of NRAS (P01111 with tags, fused parts or gaps): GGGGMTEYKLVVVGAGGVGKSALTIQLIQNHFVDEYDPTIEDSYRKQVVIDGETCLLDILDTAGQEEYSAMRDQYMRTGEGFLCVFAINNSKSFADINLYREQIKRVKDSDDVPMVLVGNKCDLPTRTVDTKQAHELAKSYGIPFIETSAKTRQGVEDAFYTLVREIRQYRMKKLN

SMILES	IC50 (KRAS G12D) [nM]	IC50 (KRAS WT) [µM]	IC50 (KRAS G12C) [nM]	IC50 (KRAS G12V) [µM]	IC50 (KRAS G13D) [nM]	IC50 (HRAS) [µM]	IC50 (NRAS) [µM]	IC50 (AsPC-1 cells) [µM]
Cc1cc2[nH]ncc2c(-c2nccc3c2sc2nc(OC[C@@]45CCCN4C[C@H](F)C5)nc(N4C5CNCC4C5)c23)c1C(F)(F)F [Ex-68, 4-(3,6-diazabicyclo[3.1.1]heptan-6-yl)-2-(((2R,7aS)-2-fluorotetrahydro-1H-pyrrolizin-7a(5H)-yl)methoxy)-8-(6-methyl-5-(trifluoromethyl)-1H-indazol-4-yl)pyrido[4′,3′:4,5]thieno[2,3-d]pyrimidine]	267	6.6	1850	1.36	3050	> 11.1	> 11.1	11.1
Cc1cc2[nH]ncc2c(-c2nccc3c2sc2nc(OC[C@@]45CCCN4C[C@H](F)C5)nc(N4C[C@@H]5C[C@H]4CN5)c23)c1C(F)(F)F [Ex-69, 4-((1S,4S)-2,5-diazabicyclo[2.2.1]heptan-2-yl)-2-(((2R,7aS)-2-fluorotetrahydro-1H-pyrrolizin-7a(5H)-yl)methoxy)-8-(6-methyl-5-(trifluoromethyl)-1H-indazol-4-yl)pyrido[4′,3′:4,5]thieno[2,3-d]pyrimidine]	35.6	4.91	1740	> 11.1	1210	> 11.1	> 11.1	1.54
Cc1cc2[nH]ncc2c(-c2nccc3c2sc2nc(OC[C@@]45CCCN4C[C@H](F)C5)nc(N4C[C@H]5C[C@@H]4CN5)c23)c1C(F)(F)F [Ex-70, 4-((1R,4R)-2,5-diazabicyclo[2.2.1]heptan-2-yl)-2-(((2R,7aS)-2-fluorotetrahydro-1H-pyrrolizin-7a(5H)-yl)methoxy)-8-(6-methyl-5-(trifluoromethyl)-1H-indazol-4-yl)pyrido[4′,3′:4,5]thieno[2,3-d]pyrimidine]	836	7.5	948	9.75	2260	> 11.1	> 11.1	5.11
Cc1cc2[nH]ncc2c(-c2nccc3c2sc2nc(OC[C@@]45CCCN4C[C@H](F)C5)nc(N4[C@@H]5CC[C@H]4CNC5)c23)c1C(F)(F)F [Ex-71, 4-((1R,5S)-3,8-diazabicyclo[3.2.1]octan-8-yl)-2-(((2R,7aS)-2-fluorotetrahydro-1H-pyrrolizin-7a(5H)-yl)methoxy)-8-(6-methyl-5-(trifluoromethyl)-1H-indazol-4-yl)pyrido[4′,3′:4,5]thieno[2,3-d]pyrimidine]	34.8	8.09	1100	5.16	2510	> 11.1	> 11.1	0.885
Cc1cc2[nH]ncc2c(-c2nccc3c2sc2nc(OC[C@@]45CCCN4C[C@H](F)C5)nc(N4CCC5CCC(C4)N5)c23)c1C(F)(F)F (stereo partly drawn) [Ex-72, 4-(3,9-diazabicyclo[4.2.1]nonan-3-yl)-2-(((2R,7aS)-2-fluorotetrahydro-1H-pyrrolizin-7a(5H)-yl)methoxy)-8-(6-methyl-5-(trifluoromethyl)-1H-indazol-4-yl)pyrido[4′,3′:4,5]thieno[2,3-d]pyrimidine]	5300	> 11.1	> 11100	> 11.1	2620	> 11.1	> 11.1	> 30

The next lines start with the values.

IC50 (KRAS G12D) [nM]	IC50 (KRAS WT) [µM]	IC50 (KRAS G12C) [nM]	IC50 (KRAS G12V) [µM]	IC50 (KRAS G13D) [nM]	IC50 (HRAS) [µM]	IC50 (NRAS) [µM]	IC50 (AsPC-1 cells) [µM]	SMILES
1390	> 11.1	> 11100	> 11.1	> 11100	> 11.1	> 11.1	4.79	Cc1cc2[nH]ncc2c(-c2nccc3c2sc2nc(OC[C@@]45CCCN4C[C@H](F)C5)nc(N4[C@@H]5CC[C@H]4CN(C)C5)c23)c1C(F)(F)F [Ex-73, 2-(((2R,7aS)-2-fluorotetrahydro-1H-pyrrolizin-7a(5H)-yl)methoxy)-8-(6-methyl-5-(trifluoromethyl)-1H-indazol-4-yl)-4-((1R,5S)-3-methyl-3,8-diazabicyclo[3.2.1]octan-8-yl)pyrido[4′,3′:4,5]thieno[2,3-d]pyrimidine]
1300	> 11.1	> 11100	> 11.1	2880	> 11.1	> 11.1	12.1	Cc1cc2[nH]ncc2c(-c2nccc3c2sc2nc(OC[C@@]45CCCN4C[C@H](F)C5)nc(NCC4(N(C)C)CCC4)c23)c1C(F)(F)F [Ex-74, N-((1-(dimethylamino)cyclobutyl)methyl)-2-(((2R,7aS)-2-fluorotetrahydro-1H-pyrrolizin-7a(5H)-yl)methoxy)-8-(6-methyl-5-(trifluoromethyl)-1H-indazol-4-yl)pyrido[4′,3′:4,5]thieno[2,3-d]pyrimidin-4-amine]
26.3	8.27	1040	6.35	1810	> 11.1	> 11.1	0.397	Cc1cc2[nH]ncc2c(-c2nccc3c2sc2nc(OC[C@@]45CCCN4C[C@H](F)C5)nc(N4C[C@H]5CC[C@@](C)(C4)N5)c23)c1C(F)(F)F [Ex-76, 2-(((2R,7aS)-2-fluorotetrahydro-1H-pyrrolizin-7a(5H)-yl)methoxy)-8-(6-methyl-5-(trifluoromethyl)-1H-indazol-4-yl)-4-((1S,5R)-1-methyl-3,8-diazabicyclo[3.2.1]octan-3-yl)pyrido[4′,3′:4,5]thieno[2,3-d]pyrimidine]
17.1	4.84	334	2.32	374	> 11.1	> 11.1	0.726	Cc1cc2[nH]ncc2c(-c2nncc3c2sc2nc(OC[C@@]45CCCN4C[C@H](F)C5)nc(N4C[C@H]5CC[C@@H](C4)N5)c23)c1C(F)(F)F [Ex-77, 4-((1R,5S)-3,8-diazabicyclo[3.2.1]octan-3-yl)-2-(((2R,7aS)-2-fluorotetrahydro-1H-pyrrolizin-7a(5H)-yl)methoxy)-8-(6-methyl-5-(trifluoromethyl)-1H-indazol-4-yl)pyrimido[5′,4′:4,5]thieno[2,3-d]pyridazine]
